Reference: PubChem BioAssay AID2060484 (Molecular Pharmacology Branch, DTP, NCI, 2025)

Test system: SUM149PT spheroids with HUVEC/MSC, viability
Assay: Anticancer human tumor SUM149PT cell line growth inhibition [GQUAD];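 further: spheroids exposed to drugs for seven days before readout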;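 on viability, T/C: percent viability relative to DMSO vehicle control taken as 100%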
Conditions: for IC50: curve of first compound; for viability, T/C: stronger effect = lower value
Text: DNA G-quadruplex Stabilizer Agents in Combinations in Complex Spheroids
A high-throughput screen of multi-cell type tumor spheroids was designed to identify active combinations of DNA G-quadruplex stabilizer agents and targeted small molecules. Complex spheroids include a stromal component modeled by human endothelial cells (HUVEC) and fibroblasts modeled by human mesenchymal stem cells (MSCs). The concentration ranges selected for each drug and investigational agent were based upon clinically achievable concentrations if the clinical Cmax of the agent was known.
Compounds. The drugs and investigational agents: pidnarulex (CX-5461; NSC782164), APTO-253 (NSC789042), BRACO-19 (NSC847499), peposertib (NSC802822), ceralasertib (NSC780249), elimusertib (NSC800525), camonsertib (NSC841442), AZD-1390 (NSC803789), olaparib (NSC753686), talazoparib (NSC767125), ART-558 (NSC835418), sotorasib (NSC818433), MRTX-1133 (NSC836407), SN-38 (NSC673596), topotecan (NSC609699), etoposide (NSC141540), doxorubicin (NSC123127), gemcitabine (NSC613327), 5-fluorouracil (NSC19893), paclitaxel (NSC125973), vemurafenib (NSC761431), panobinostat (NSC761190), R-306465 (JNJ-16241199; NSC773264), adavosertib (NSC754352), TP-3654 (NSC805149), carboplatin (NSC241240), KSQ-4279 (NSC840948), and staurosporine (NSC755774) were obtained from the National Cancer Institute (NCI) Developmental Therapeutics Program Chemical Repository (34). The FDA-approved anticancer drug set is available from the NCI Developmental Therapeutics Program. […] The stock solutions were prepared in dimethyl sulfoxide (DMSO, Sigma-Aldrich, St. Louis, MO, cat. D2650) at 800-fold the tested concentration and stored at -70 degrees C prior to their use. All drugs and investigational agents were tested over a range starting from a high concentration at or near the clinical Cmax and decreasing in half-log increments. If the clinical Cmax for an agent had not been determined, the highest concentration tested was 10 microM.
2.3 Cell Culture. All cells were maintained in an incubator at 37 degrees C and 5% CO2 with 95% humidity. The PDC lines were cultured according to standard operating procedures established by the NCI PDMR. All PDCs were thawed and cultured in Matrigel-coated flasks prepared with a working solution of 1X Ham's F-12 nutrient mix, without supplementation (Invitrogen, cat. 11765054), 100 U/mL penicillin-streptomycin (Invitrogen, cat. 15140122), and 2.5% Matrigel (Corning Inc., cat. 354248) for the first three passages. The 857933-349-R-J2-PDC line was cultured in 6C/Colon 1B media, which includes advanced DMEM/F-12 (Thermo Fisher Scientific, cat. 12634028), 10 mM HEPES (Thermo Fisher Scientific, cat. 15630080), 1X GlutaMAX supplement (Thermo Fisher Scientific, cat. 35050061), 0.1 mg/mL primocin (InvivoGen, cat. ant-pm-2), 10% defined fetal bovine serum, heat inactivated (HyClone Laboratories Inc., cat. SH30070.03HI), 50% L-WRN conditioned media (ATCC, cat. CRL-3276), 1.25 mM N-Acetyl-L-cysteine (Sigma-Aldrich, cat. A9165), 10 mM nicotinamide (Sigma-Aldrich, cat. N0636), 1X B-27 supplement (Thermo Fisher Scientific, cat. 17504044), 1X N-2 supplement (Thermo Fisher Scientific, cat. 17502048), 10 microM Y-27632 dihydrochloride (Tocris Bioscience, cat. 1254), and 50 ng/mL human EGF recombinant protein (Thermo Fisher Scientific, cat. PHG0311). The 485176-168-R4-J1-PDC line was cultured in Panc media, which includes all 6C/Colon 1B media components plus 100 ng/mL human FGF-10 (Thermo Fisher Scientific, cat. 100-26), 500 nM SB-431542 (Selleckchem, cat. S1067), and gastrin (Tocris, cat. 3006).
[…]

COc1cccc2c1C(=O)c1c(O)c3c(c(O)c1C2=O)CC(O)(C(=O)CO)CC3OC1CC(N)C(O)C(C)O1 (configuration not stated) + Cc1[nH]c2ccc(F)cc2c1-c1nc2c3cccnc3c3ncccc3c2[nH]1
IC50 (second compound 0.0316 µM): 204 nM | IC50 (second compound 0.1 µM): 203 nM | IC50 (second compound 0.316 µM): 190 nM | IC50 (second compound 1 µM): 201 nM | IC50 (second compound 3.16 µM): 171 nM | IC50 (second compound 10 µM): 145 nM | viability, T/C (second compound 0.0316 µM, first compound 0.0316 µM): 91.3% | viability, T/C (second compound 0.0316 µM, first compound 0.1 µM): 62.5% | viability, T/C (second compound 0.0316 µM, first compound 0.316 µM): 44.3% | viability, T/C (second compound 0.0316 µM, first compound 1 µM): 19.1% | viability, T/C (second compound 0.0316 µM, first compound 3.16 µM): 2.87% | viability, T/C (second compound 0.0316 µM, first compound 10 µM): 0.48% | viability, T/C (second compound 0.1 µM, first compound 0.0316 µM): 91.1% | viability, T/C (second compound 0.1 µM, first compound 0.1 µM): 62.1% | viability, T/C (second compound 0.1 µM, first compound 0.316 µM): 45.2% | viability, T/C (second compound 0.1 µM, first compound 1 µM): 16.8% | viability, T/C (second compound 0.1 µM, first compound 3.16 µM): 2.57% | viability, T/C (second compound 0.1 µM, first compound 10 µM): 1.39% | viability, T/C (second compound 0.316 µM, first compound 0.0316 µM): 84.3% | viability, T/C (second compound 0.316 µM, first compound 0.1 µM): 60.2% | viability, T/C (second compound 0.316 µM, first compound 0.316 µM): 43% | viability, T/C (second compound 0.316 µM, first compound 1 µM): 18.9% | viability, T/C (second compound 0.316 µM, first compound 3.16 µM): 3.58% | viability, T/C (second compound 0.316 µM, first compound 10 µM): 1.15% | viability, T/C (second compound 1 µM, first compound 0.0316 µM): 94.7% | viability, T/C (second compound 1 µM, first compound 0.1 µM): 61.9% | viability, T/C (second compound 1 µM, first compound 0.316 µM): 44.7% | viability, T/C (second compound 1 µM, first compound 1 µM): 19.4% | viability, T/C (second compound 1 µM, first compound 3.16 µM): 2.12% | viability, T/C (second compound 1 µM, first compound 10 µM): 1.25% | viability, T/C (second compound 3.16 µM, first compound 0.0316 µM): 82.6% | viability, T/C (second compound 3.16 µM, first compound 0.1 µM): 58.5% | viability, T/C (second compound 3.16 µM, first compound 0.316 µM): 40.8% | viability, T/C (second compound 3.16 µM, first compound 1 µM): 16.7% | viability, T/C (second compound 3.16 µM, first compound 3.16 µM): 4.43% | viability, T/C (second compound 3.16 µM, first compound 10 µM): 1.38% | viability, T/C (second compound 10 µM, first compound 0.0316 µM): 90.3% | viability, T/C (second compound 10 µM, first compound 0.1 µM): 54% | viability, T/C (second compound 10 µM, first compound 0.316 µM): 39.5% | viability, T/C (second compound 10 µM, first compound 1 µM): 15.7% | viability, T/C (second compound 10 µM, first compound 3.16 µM): 3.44% | viability, T/C (second compound 10 µM, first compound 10 µM): 0.4%
